Results taken from PubChem BioAssay (NCI).
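48-hour exposure; five concentrations; linearly interpolated endpoints. The concentration for full growth arrest is given as TGI.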 Where a SMILES comes first, the peptide text is derived from it. [ ]: non-standard residue; d: D form. Hiv = CC(C)[C@H](O)C(=O)O

Assays:
Assay in all cases: inhibition of tumour cell growth, NCI panel, 48 h
[1] = system: SNB-75 CNS
[2] = system: HCT-15 colon
[3] = system: K-562 leukemia
[4] = system: U251 CNS
[5] = system: TK-10 renal
[6] = system: OVCAR-5 ovarian
[7] = system: A549 NSCLC
[8] = system: SW-620 colon
[9] = system: DU-145 prostate
[10] = system: UACC-257 melanoma
[11] = system: OVCAR-3 ovarian
[12] = system: MDA-MB-231 breast
[13] = system: NCI-H226 lung
[14] = system: MDA-MB-435
[15] = system: SK-MEL-2 melanoma
[16] = system: M14 melanoma
[17] = system: SF-539 CNS
[18] = system: HL-60(TB) leukemia
[19] = system: NCI-H522 lung
[20] = system: BT-549 breast

With Cc1c(N=Nc2ccc(Cl)cc2)c(C)n(C2OC(CO)C(O)C(O)C2O)c(=S)c1C#N (centres undefined) the TGI [1] was 68 µM, the TGI [2] was 60.8 µM and the TGI [3] was 55.4 µM. The TGI [4] was 36.4 µM, the TGI [5] was 79.5 µM and the TGI [6] was over 100 µM. It also gave a TGI [7] of over 100 µM, a TGI [8] of over 100 µM and a TGI [9] of over 100 µM. It also gave a TGI [10] of 54.1 µM, a TGI [11] of 34.2 µM and a TGI [12] of 36.1 µM. For the same compound, the TGI [13] was 65.9 µM, the TGI [14] was 42.7 µM and the TGI [15] was 33.8 µM. For the same compound, the TGI [16] was 36.5 µM, the TGI [17] was 38 µM and the TGI [18] was 58.3 µM. For the same compound, the TGI [19] was 49.9 µM.
Compound O=C1OCCC[C@H]2O[C@@H](COCc3ccccc3)C[C@@H]12 has a TGI [1] of over 100 µM, a TGI [2] of over 100 µM and a TGI [3] of over 100 µM. The TGI [4] was over 100 µM, the TGI [5] was over 100 µM and the TGI [6] was over 100 µM. The TGI [7] was over 100 µM, the TGI [8] was over 100 µM and the TGI [9] was over 100 µM. It also gave a TGI [10] of over 100 µM, a TGI [11] of over 100 µM and a TGI [12] of over 100 µM. For the same compound, the TGI [13] was over 100 µM, the TGI [14] was over 100 µM and the TGI [15] was over 100 µM. For the same compound, the TGI [16] was over 100 µM, the TGI [17] was over 100 µM and the TGI [18] was over 100 µM.
With CCOC(=O)CC(=O)CSc1c(-c2ccccc2)c(=O)n(-c2ccccc2)c(=S)n1-c1ccccc1 the TGI [1] was over 100 µM, the TGI [2] was over 100 µM and the TGI [3] was over 100 µM. For the same compound, the TGI [4] was over 100 µM, the TGI [5] was over 100 µM and the TGI [6] was over 100 µM. For the same compound, the TGI [7] was over 100 µM, the TGI [8] was over 100 µM and the TGI [9] was over 100 µM. For the same compound, the TGI [10] was over 100 µM, the TGI [11] was over 100 µM and the TGI [12] was over 100 µM. It also gave a TGI [13] of over 100 µM, a TGI [14] of over 100 µM and a TGI [16] of over 100 µM. For the same compound, the TGI [17] was over 100 µM, the TGI [18] was over 100 µM and the TGI [19] was over 100 µM.
In the case of N#CC1=C(N)OC(c2cccc([N+](=O)[O-])c2)C1(C#N)C#N (centres undefined), the TGI [1] was 24.7 µM, the TGI [2] was 34.3 µM and the TGI [3] was over 100 µM. The TGI [4] was over 100 µM, the TGI [5] was 33.8 µM and the TGI [6] was 42.7 µM. It also gave a TGI [7] of 99.6 µM, a TGI [9] of 31.2 µM and a TGI [10] of 31.3 µM. For the same compound, the TGI [13] was 94.3 µM, the TGI [14] was 59.2 µM and the TGI [15] was 40.4 µM. The TGI [16] was 63.6 µM, the TGI [17] was 42.5 µM and the TGI [18] was over 100 µM. The TGI [19] was 28.8 µM.
Compound CCn1c(O)c(C=Nc2ccccc2)s/c1=N/Nc1nc(-c2ccc(O)c(O)c2)cs1 has a TGI [1] of over 100 µM, a TGI [2] of over 100 µM and a TGI [3] of 26.5 µM. For the same compound, the TGI [4] was over 100 µM, the TGI [5] was over 100 µM and the TGI [6] was over 100 µM. For the same compound, the TGI [7] was over 100 µM, the TGI [8] was over 100 µM and the TGI [9] was over 100 µM. It also gave a TGI [10] of over 100 µM, a TGI [11] of 49 µM and a TGI [12] of over 100 µM. For the same compound, the TGI [13] was over 100 µM, the TGI [15] was over 100 µM and the TGI [16] was over 100 µM. The TGI [17] was 4.76 µM, the TGI [18] was 6.04 µM and the TGI [19] was 98.2 µM.
For O=S(=O)(Oc1ccc2ccccc2c1-c1c(OS(=O)(=O)C(F)(F)F)ccc2ccccc12)C(F)(F)F, the TGI [1] was over 100 µM, the TGI [2] was over 100 µM and the TGI [3] was over 100 µM. For the same compound, the TGI [4] was over 100 µM, the TGI [6] was over 100 µM and the TGI [7] was over 100 µM. The TGI [8] was over 100 µM, the TGI [10] was 8.3 µM and the TGI [11] was over 100 µM. It also gave a TGI [12] of over 100 µM, a TGI [20] of over 100 µM and a TGI [13] of over 100 µM. For the same compound, the TGI [14] was over 100 µM, the TGI [15] was over 100 µM and the TGI [16] was over 100 µM. For the same compound, the TGI [17] was over 100 µM, the TGI [18] was over 100 µM and the TGI [19] was over 100 µM.
Cc1nc2ccc(N)cc2[nH]c1=O gave a TGI [2] of over 100 µM, a TGI [3] of over 100 µM and a TGI [4] of over 100 µM. The TGI [5] was over 100 µM, the TGI [6] was over 100 µM and the TGI [7] was over 100 µM. It also gave a TGI [8] of over 100 µM, a TGI [10] of over 100 µM and a TGI [11] of over 100 µM. For the same compound, the TGI [15] was over 100 µM, the TGI [16] was over 100 µM and the TGI [17] was over 100 µM. It also gave a TGI [18] of over 100 µM.
Work on CC(C)[C@@H]1OC(=O)[C@@H](C)NC(=O)[C@@H]2CCCN2C1=O (cyclo([Hiv]-Pro-[dA])) yielded a TGI [2] of over 100 µM, a TGI [5] of over 100 µM and a TGI [6] of over 100 µM. The TGI [7] was over 100 µM, the TGI [8] was over 100 µM and the TGI [9] was over 100 µM. It also gave a TGI [10] of over 100 µM, a TGI [11] of over 100 µM and a TGI [12] of over 100 µM. For the same compound, the TGI [13] was over 100 µM, the TGI [14] was over 100 µM and the TGI [15] was over 100 µM. It also gave a TGI [16] of over 100 µM, a TGI [17] of over 100 µM and a TGI [18] of over 100 µM.
C[N+]1(C)C[C@@H](O)C[C@@H]1C(=O)[O-] was tested, and the TGI [1] was over 100 µM, the TGI [2] was over 100 µM and the TGI [3] was over 100 µM. For the same compound, the TGI [4] was over 100 µM, the TGI [5] was over 100 µM and the TGI [7] was over 100 µM. For the same compound, the TGI [8] was over 100 µM, the TGI [10] was over 100 µM and the TGI [11] was over 100 µM. It also gave a TGI [13] of over 100 µM, a TGI [15] of over 100 µM and a TGI [16] of over 100 µM. It also gave a TGI [17] of over 100 µM, a TGI [18] of over 100 µM and a TGI [19] of over 100 µM.
Work on Cc1cccc(/C=N/NC(=S)N(C)CCc2ccccn2)n1 yielded a TGI [1] of 21.9 µM, a TGI [2] of over 100 µM and a TGI [3] of over 45.6 µM. It also gave a TGI [4] of over 100 µM, a TGI [5] of over 100 µM and a TGI [6] of over 100 µM. The TGI [7] was over 100 µM, the TGI [8] was over 100 µM and the TGI [10] was 45.6 µM. The TGI [11] was over 100 µM, the TGI [12] was over 100 µM and the TGI [20] was over 100 µM. It also gave a TGI [13] of 19.6 µM, a TGI [14] of over 100 µM and a TGI [15] of over 100 µM. For the same compound, the TGI [16] was 2.38 µM, the TGI [17] was 6.8 µM and the TGI [19] was over 100 µM.
Work on N#CC1CCCCC1NC1(C#N)CCCCC1 (centres undefined) yielded a TGI [1] of over 100 µM, a TGI [2] of over 100 µM and a TGI [3] of over 100 µM. It also gave a TGI [4] of over 100 µM, a TGI [5] of over 100 µM and a TGI [7] of over 100 µM. The TGI [8] was over 100 µM, the TGI [10] was over 100 µM and the TGI [11] was over 100 µM. For the same compound, the TGI [13] was over 100 µM, the TGI [15] was over 100 µM and the TGI [16] was over 100 µM. It also gave a TGI [17] of over 100 µM, a TGI [18] of over 100 µM and a TGI [19] of over 100 µM.
COC1=CC(=O)C2C(C1=O)C(c1ccc(Cl)cc1)[C@@H]2C (some centres undefined) showed a TGI [1] of 64.8 µM, a TGI [2] of 31.9 µM and a TGI [3] of over 100 µM. For the same compound, the TGI [4] was 62.9 µM, the TGI [5] was over 100 µM and the TGI [6] was over 100 µM. The TGI [7] was over 100 µM, the TGI [8] was 74.9 µM and the TGI [10] was over 100 µM. It also gave a TGI [11] of over 100 µM, a TGI [13] of 81.8 µM and a TGI [15] of over 100 µM. For the same compound, the TGI [16] was 71.7 µM, the TGI [17] was 51.2 µM and the TGI [18] was 55.7 µM. For the same compound, the TGI [19] was 29.8 µM.
COc1c(C)c(O)c2c(c1C)OC(c1ccccc1)CC2=O (centres undefined) gave a TGI [1] of over 100 µM, a TGI [2] of over 100 µM and a TGI [3] of over 100 µM. For the same compound, the TGI [4] was over 100 µM, the TGI [5] was over 100 µM and the TGI [6] was over 100 µM. It also gave a TGI [7] of over 100 µM, a TGI [8] of over 100 µM and a TGI [11] of over 100 µM. The TGI [13] was over 100 µM, the TGI [15] was 74.1 µM and the TGI [16] was over 100 µM. The TGI [17] was over 100 µM, the TGI [18] was 90.5 µM and the TGI [19] was over 100 µM.
